Results published in ChEMBL document CHEMBL5537179, “Combination Therapy and Dual-Target Inhibitors Based on LSD1: New Emerging Tools in Cancer Therapy” (J Med Chem, 2024).

Assays:
[1] = target: Spermine oxidase (Homo sapiens, UniProt Q9NWM0); experiment: Inhibition of SMOX (unknown origin) using spermine as substrate preincubated for 1 hr followed by substrate addition and measured after 20 mins by luminometer analysis
[2] = target: T1, Histone deacetylase 1 (Homo sapiens, UniProt Q13547); experiment: Inhibition of human recombinant HDAC1 using fluorogenic HDAC substrate preincubated for 30 mins followed by substrate addition and measured after 15 mins by fluorescence based assay
[3] = target: T2, Lysine-specific histone demethylase 1A (Homo sapiens, UniProt O60341); experiment: Inhibition of LSD1 (unknown origin) at 10 uM relative to control
[4] = target: T3, Bromodomain-containing protein 4 (Homo sapiens, UniProt O60885); experiment: Inhibition of human BRD4 BD1 by TR-FRET assay
[5] = target: T3, Bromodomain-containing protein 4; experiment: Inhibition of human BRD4 BD2 by TR-FRET assay
[6] = target: T2, Lysine-specific histone demethylase 1A; experiment: Inhibition of human LSD1 by luminescence assay
[7] = target: T2, Lysine-specific histone demethylase 1A
[8] = target: T1, Histone deacetylase 1; experiment: Inhibition of HDAC1 (unknown origin)
[9] = Tmax in human at 5 mg/kg, po; type: ADME, organism-based; conditions: in vivo
[10] = Cmax in human at 5 mg/kg, po; type: ADME, organism-based; conditions: in vivo
[11] = in vitro; conditions: human, THP-1 cells
[12] = test system: Kasumi 1; experiment: cells; conditions: Homo sapiens, Kasumi 1, 168 h
[13] = test system: MV4-11; experiment: cells; conditions: Homo sapiens, MV4-11, 72 h
[14] = target: DCN1-like protein 1 (Homo sapiens, UniProt Q96GG9); experiment: Inhibition of DCN1 (unknown origin) by TR-FRET analysis
[15] = target: T2, Lysine-specific histone demethylase 1A; experiment: Inhibition of human LSD1 expressed in Escherichia coli Rosetta (DE3) cells using H3K4me2 peptide as substrate and measured after 1 hr by fluorescence based analysis
[16] = target: Tubulin; experiment: Inhibition of tubulin polymerization (unknown origin) by fluorescence based assay; type: protein-complex assay, Homo sapiens
[17] = Cmax in CD-1 mouse at 2 mg/kg, iv; type: ADME, organism-based; conditions: in vivo
[18] = Oral bioavailability in mouse; type: ADME, organism-based; conditions: in vivo
[19] = Half life in CD-1 mouse at 2 mg/kg, iv; type: ADME, organism-based; conditions: in vivo
[20] = target: Lysine-specific demethylase 6A (Homo sapiens, UniProt O15550); experiment: Inhibition of human UTX using Biotin-KAPRKQLATKAARK(me3)SAPATGG as substrate by MALDI-TOF analysis
[21] = Half life in human plasma; type: ADME, cell-free
[22] = test system: Leukemia cell; experiment: Antitumor activity against human Leukemia cells assessed as reduction in cell growth incubated for 72 hrs by MTT assay; type: functional, cell-based
[23] = Oral bioavailability in BALB/c mouse at 5 mg/kg measured after 24 hrs by LC-MS/MS analysis; type: ADME, organism-based; conditions: in vivo
[24] = Half life in BALB/c mouse plasma at 5 mg/kg, ip measured after 24 hrs by LC-MS/MS analysis; type: ADME, organism-based

T1 sequence (Q13547 whole entry): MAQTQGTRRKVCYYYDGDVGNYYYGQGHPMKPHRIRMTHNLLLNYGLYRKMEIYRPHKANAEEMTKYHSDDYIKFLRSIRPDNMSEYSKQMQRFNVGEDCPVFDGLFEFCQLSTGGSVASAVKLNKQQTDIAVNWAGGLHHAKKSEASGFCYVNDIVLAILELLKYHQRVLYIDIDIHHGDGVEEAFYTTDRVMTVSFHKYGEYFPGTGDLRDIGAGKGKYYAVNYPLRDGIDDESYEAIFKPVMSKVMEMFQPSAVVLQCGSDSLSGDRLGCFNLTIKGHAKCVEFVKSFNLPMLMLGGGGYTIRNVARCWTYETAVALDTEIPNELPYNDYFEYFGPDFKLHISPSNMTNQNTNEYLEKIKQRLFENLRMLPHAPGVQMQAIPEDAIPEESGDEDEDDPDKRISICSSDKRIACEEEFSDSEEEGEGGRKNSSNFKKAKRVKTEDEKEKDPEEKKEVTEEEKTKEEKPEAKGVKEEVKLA
Spermine oxidase, sequence (Q9NWM0 whole entry): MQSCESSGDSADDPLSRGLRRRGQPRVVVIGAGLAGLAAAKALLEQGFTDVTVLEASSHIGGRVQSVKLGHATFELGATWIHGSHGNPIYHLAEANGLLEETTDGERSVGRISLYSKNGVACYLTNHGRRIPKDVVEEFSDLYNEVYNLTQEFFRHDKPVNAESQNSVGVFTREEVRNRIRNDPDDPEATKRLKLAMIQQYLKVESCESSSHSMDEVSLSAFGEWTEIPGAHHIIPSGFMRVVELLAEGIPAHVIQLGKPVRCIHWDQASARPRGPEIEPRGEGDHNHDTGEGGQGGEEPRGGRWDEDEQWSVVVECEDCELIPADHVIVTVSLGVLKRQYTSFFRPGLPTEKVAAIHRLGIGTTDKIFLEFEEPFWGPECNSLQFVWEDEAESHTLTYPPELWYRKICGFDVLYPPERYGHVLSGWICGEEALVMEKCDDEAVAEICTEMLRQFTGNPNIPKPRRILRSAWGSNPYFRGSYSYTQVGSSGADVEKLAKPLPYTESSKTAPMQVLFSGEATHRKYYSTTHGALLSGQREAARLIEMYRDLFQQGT
DCN1-like protein 1, sequence (Q96GG9 whole entry): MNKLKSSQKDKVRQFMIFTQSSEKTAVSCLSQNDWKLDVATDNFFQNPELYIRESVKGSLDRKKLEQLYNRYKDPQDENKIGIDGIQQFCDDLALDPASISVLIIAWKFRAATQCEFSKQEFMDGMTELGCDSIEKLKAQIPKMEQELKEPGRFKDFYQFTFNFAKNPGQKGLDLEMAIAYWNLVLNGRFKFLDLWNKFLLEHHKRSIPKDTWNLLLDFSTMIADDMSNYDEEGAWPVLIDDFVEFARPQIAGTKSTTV
Lysine-specific demethylase 6A, sequence (O15550 whole entry): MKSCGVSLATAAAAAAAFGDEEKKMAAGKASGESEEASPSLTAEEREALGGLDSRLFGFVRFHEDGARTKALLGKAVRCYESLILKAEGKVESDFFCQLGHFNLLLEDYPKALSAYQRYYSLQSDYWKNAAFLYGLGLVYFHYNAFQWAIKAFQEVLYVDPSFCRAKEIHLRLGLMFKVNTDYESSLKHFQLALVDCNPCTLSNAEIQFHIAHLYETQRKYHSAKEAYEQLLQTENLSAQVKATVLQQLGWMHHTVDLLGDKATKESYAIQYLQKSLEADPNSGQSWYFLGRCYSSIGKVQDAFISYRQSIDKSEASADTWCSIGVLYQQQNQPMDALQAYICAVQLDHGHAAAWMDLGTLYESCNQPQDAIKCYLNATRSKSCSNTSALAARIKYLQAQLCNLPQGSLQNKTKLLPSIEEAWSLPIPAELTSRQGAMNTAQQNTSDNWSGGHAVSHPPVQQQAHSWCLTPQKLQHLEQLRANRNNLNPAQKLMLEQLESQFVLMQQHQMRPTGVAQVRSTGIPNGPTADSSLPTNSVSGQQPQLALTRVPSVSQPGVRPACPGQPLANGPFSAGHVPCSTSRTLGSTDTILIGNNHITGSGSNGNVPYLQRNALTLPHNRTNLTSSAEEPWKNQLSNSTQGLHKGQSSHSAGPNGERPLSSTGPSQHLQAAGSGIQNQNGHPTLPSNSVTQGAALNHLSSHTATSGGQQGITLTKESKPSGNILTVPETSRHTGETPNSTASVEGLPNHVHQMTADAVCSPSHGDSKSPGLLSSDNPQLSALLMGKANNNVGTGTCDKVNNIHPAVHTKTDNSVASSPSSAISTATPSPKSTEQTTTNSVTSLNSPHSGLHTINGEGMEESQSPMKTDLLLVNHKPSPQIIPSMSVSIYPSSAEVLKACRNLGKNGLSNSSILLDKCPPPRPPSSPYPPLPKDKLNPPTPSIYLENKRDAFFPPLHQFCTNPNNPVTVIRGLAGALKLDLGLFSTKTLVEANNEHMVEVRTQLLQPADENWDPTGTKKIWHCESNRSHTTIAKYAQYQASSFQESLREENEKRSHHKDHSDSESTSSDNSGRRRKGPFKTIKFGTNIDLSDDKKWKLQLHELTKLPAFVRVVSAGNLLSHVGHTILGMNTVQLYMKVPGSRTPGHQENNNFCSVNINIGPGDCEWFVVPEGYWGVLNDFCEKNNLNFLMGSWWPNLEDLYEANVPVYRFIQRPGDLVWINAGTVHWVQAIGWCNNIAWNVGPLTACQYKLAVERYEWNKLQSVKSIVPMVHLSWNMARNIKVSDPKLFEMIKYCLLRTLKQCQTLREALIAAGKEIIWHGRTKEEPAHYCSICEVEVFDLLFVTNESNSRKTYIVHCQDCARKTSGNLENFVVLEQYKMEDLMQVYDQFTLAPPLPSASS

## C=C/C=C/c1cccc(Oc2cccc(Cl)c2CNc2nc(N)n[nH]2)c1/C=C/C=C
[1]
  IC50: 148 µM

## NC1CC1c1ccc(NC(=O)CCCc2ccccc2)cc1 (stereo not given)
[2]
  IC50: > 30 µM

## Nc1n[nH]c(NCc2ccccc2Oc2ccc(-c3ccccc3)cc2)n1
[3]
  inhibition: 52.1%

## C/C(=N\NC(=O)c1cccc(S(=O)(=O)N2CCOCC2)c1)c1cc(Cl)ccc1O
[4]
  IC50: 0.077 µM
[5]
  IC50: 0.033 µM

## COC(=O)/C=C/c1ccc(CN(C(=O)OC(C)(C)C)C2CC2c2ccc(F)cc2)cc1 (stereo not given)
[6]
  IC50: 0.05 µM

## Nc1ccccc1NC(=O)c1ccc(CCCC(=O)Nc2ccc(C3CC3N)cc2)cc1 (stereo not given)
[7]
  IC50: 0.3 µM
[8]
  IC50: 0.3 µM

## COc1ccc(-c2c(-c3ccc(C#N)c(F)c3)nc(N3CCC(N)CC3)n(C)c2=O)cc1F.O=S(=O)(O)c1ccccc1 [PULRODEMSTAT BESILATE]
[9]
  Tmax: 4 h
[10]
  Cmax: 19 ng/mL
[11]
  IC50 at 72 h: 0.007 µM
[12]
  IC50: 0.002 µM
[13]
  IC50: 1.4 µM

## CN(C)CCn1nnnc1Sc1ccnc2nc(SCc3ccc(Br)cc3)nn12
[14]
  IC50: 0.0148 µM

## O=S1(=O)CCCN(S(=O)(=O)c2ccc(-c3cnc(C4CC4)o3)cc2)c2ccccc21
[15]
  IC50: 2.8 µM
[16]
  IC50: 3.1 µM

## O=C(O)c1ccc(CN2CCC(CN[C@@H]3C[C@H]3c3ccccc3)CC2)cc1 [GSK2879552]
[17]
  Cmax: 720 ng/mL
[18]
  bioavailability: 59.2%
[19]
  half-life: 1.9 h

## NC1CC1c1ccc(NC(=O)c2ccc(O)c3ncccc23)cc1 (stereo not given)
[7]
  IC50: < 1 µM
[20]
  IC50: 27 µM

## Nc1nnc(CN[C@@H]2C[C@H]2c2ccc(OCc3ccccc3)cc2)o1
[21]
  half-life: 22 h

## N[C@H]1CC[C@H](N[C@@H]2C[C@H]2c2ccccc2)CC1
[22]
  EC50: 0.0001 µM
[23]
  bioavailability: 77%
[24]
  half-life: 10 h
